Data: US8933230B2, “Phosphorus-containing group-substituted quinoline, its preparation process, medical composition containing the compounds and application” (priority 2011, dated 2015)

How the values were obtained:
Assay in all cases: KinomeScan kinase panel
Type in all cases: binding
EGFR(L858R) = target: T1, EGFR(L858R) (Homo sapiens, UniProt P00533, L858R)
T1 construct: purchased DiscoveRx Corporation (KinomeScan)
Protocol: (§1) In this example, the compound prepared in Example 10, N1-[4-[[7-[[1-(diethoxyphosphorylmethyl)-4-piperidinyl]methoxyl]-6-methoxyl-4-quinolyl]oxyl]-3-fluorophenyl]-N1′-(4-fluorophenyl)cyclopropane-1,1-dicarboxamide is tested for the inhibitory effect in the 442-kinase panel of KinomeScan™ (www.kinomescan.com) from DiscoveRx Corporation (4215 Sorrento Valley Blvd, San Diego, Calif. 92121) at 1000 nM of the compound concentration, the results are shown in the following Table 5:
(§2) For the detailed information of the screening technique, see Fabian, M. A. et al, Nat., Biotechnol. 2005, 23, 329 and Karaman, M. W. et al, Nat., Biotechnol. 2008, 26, 127. It can be seen from the following representative results that, the compound according to the present invention has significant inhibitory effect on kinases including c-Met, KDR or VEGFR2, RET, PDGFR-β, c-KIT, Flt3, MEK5, DDR1, LOK, CSF1R, EPHA7, EPHA8, EPHB6, MKNK2, BLK, HIPK4, HCK, Flt4 and the mutants thereof

CAMK2B = target: T2, CAMK2B (Homo sapiens, UniProt Q13554)
T2 construct: purchased DiscoveRx Corporation (KinomeScan)
T2 sequence (Q13554 whole entry): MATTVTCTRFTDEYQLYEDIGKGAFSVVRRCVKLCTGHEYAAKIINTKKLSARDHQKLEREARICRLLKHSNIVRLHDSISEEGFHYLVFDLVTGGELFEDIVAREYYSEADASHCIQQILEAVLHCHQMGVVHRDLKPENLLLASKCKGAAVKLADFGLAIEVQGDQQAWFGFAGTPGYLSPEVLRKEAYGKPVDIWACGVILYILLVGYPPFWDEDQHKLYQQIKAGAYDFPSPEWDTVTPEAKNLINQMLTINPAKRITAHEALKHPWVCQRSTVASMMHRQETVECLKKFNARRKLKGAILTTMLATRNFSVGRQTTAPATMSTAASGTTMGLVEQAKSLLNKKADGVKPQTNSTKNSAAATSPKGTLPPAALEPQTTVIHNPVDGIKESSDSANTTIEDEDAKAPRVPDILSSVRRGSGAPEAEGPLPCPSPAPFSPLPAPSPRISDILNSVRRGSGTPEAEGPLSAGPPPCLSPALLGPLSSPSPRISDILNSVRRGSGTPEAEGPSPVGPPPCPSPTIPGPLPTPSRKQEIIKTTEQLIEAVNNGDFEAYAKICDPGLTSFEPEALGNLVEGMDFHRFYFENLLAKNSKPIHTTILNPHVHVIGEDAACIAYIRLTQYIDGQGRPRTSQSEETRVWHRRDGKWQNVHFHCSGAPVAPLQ
Protocol: as §1, §2

CSNK2A2 = target: T3, CSNK2A2 (Homo sapiens, UniProt P19784)
T3 construct: purchased DiscoveRx Corporation (KinomeScan)
T3 sequence (P19784 whole entry): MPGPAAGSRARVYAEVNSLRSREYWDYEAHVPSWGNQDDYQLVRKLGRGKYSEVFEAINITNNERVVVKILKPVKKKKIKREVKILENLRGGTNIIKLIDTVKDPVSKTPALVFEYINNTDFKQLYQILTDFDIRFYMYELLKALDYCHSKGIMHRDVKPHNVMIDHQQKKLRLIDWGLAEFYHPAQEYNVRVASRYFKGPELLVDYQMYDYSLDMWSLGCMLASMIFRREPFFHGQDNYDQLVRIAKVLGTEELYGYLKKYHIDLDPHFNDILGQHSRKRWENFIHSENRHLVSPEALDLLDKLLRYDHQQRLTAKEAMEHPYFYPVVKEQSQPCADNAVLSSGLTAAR
Protocol: as §1, §2

PDPK1 = target: T4, PDPK1 (Homo sapiens, UniProt O15530)
T4 construct: purchased DiscoveRx Corporation (KinomeScan panel)
Protocol: as §1, §2

[1] = target: T5, RPS6KA4(kin.Dom.2-C-termimal) (Homo sapiens, UniProt O75676)
T5 construct: kin.Dom.2; purchased DiscoveRx Corporation
Protocol: as §1, §2

LIMK2 = target: T6, LIMK2 (Homo sapiens, UniProt P53671)
T6 construct: purchased DiscoveRx Corporation (KinomeScan)
Protocol: as §1, §2

ERK2 = target: T7, ERK2 (Homo sapiens, UniProt P28482)
T7 construct: purchased DiscoveRx Corporation (KinomeScan)
Protocol: as §1, §2

CAMK2G = target: T8, CAMK2G (Homo sapiens, UniProt Q13555)
T8 construct: purchased DiscoveRx Corporation (KinomeScan)
Protocol: as §1, §2

LRRK2(G2019S) = target: T9, LRRK2(G2019S) (Homo sapiens, UniProt Q5S007, G2019S)
T9 construct: purchased DiscoveRx Corporation (KinomeScan)
Protocol: as §1, §2

TGFBR1 = target: T10, TGFBR1 (Homo sapiens, UniProt P36897)
T10 construct: purchased DiscoveRx Corporation (KinomeScan)
T10 sequence (P36897 34-503): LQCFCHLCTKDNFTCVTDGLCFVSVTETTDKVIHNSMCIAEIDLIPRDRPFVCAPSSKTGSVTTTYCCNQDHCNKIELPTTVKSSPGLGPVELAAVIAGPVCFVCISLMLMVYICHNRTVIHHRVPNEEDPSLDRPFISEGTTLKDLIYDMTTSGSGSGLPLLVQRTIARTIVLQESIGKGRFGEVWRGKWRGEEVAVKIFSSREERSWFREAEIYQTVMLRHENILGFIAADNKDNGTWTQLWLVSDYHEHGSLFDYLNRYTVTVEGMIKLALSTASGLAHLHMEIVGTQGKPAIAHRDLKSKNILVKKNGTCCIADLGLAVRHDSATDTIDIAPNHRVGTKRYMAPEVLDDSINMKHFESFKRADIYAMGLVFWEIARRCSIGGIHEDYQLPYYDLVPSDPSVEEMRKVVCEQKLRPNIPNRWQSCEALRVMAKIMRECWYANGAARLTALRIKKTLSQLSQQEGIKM
Protocol: as §1, §2

STK36 = target: T11, STK36 (Homo sapiens, UniProt Q9NRP7)
T11 construct: purchased DiscoveRx Corporation (KinomeScan)
Protocol: as §1, §2

AAK1 = target: T12, AAK1 (Homo sapiens, UniProt Q2M2I8)
T12 construct: purchased DiscoveRx Corporation (KinomeScan)
Protocol: as §1, §2

[2] = target: T13, ABL1(Y253F)-phosphorylated (Homo sapiens, UniProt P00519, Y253F)
T13 construct: purchased DiscoveRx Corporation (KinomeScan)
Protocol: as §1, §2

SYK = target: T14, SYK (Homo sapiens, UniProt P43405)
T14 construct: purchased DiscoveRx Corporation (KinomeScan)
Protocol: as §1, §2

KIT(V559D) = target: T15, KIT(V559D) (Homo sapiens, UniProt P10721, V559D)
T15 construct: purchased DiscoveRx Corporation (KinomeScan)
Protocol: as §1, §2

IKK-beta = target: T16, IKK-beta (Homo sapiens, UniProt O14920)
T16 construct: purchased DiscoveRx Corporation (KinomeScan)
T16 sequence (O14920 whole entry): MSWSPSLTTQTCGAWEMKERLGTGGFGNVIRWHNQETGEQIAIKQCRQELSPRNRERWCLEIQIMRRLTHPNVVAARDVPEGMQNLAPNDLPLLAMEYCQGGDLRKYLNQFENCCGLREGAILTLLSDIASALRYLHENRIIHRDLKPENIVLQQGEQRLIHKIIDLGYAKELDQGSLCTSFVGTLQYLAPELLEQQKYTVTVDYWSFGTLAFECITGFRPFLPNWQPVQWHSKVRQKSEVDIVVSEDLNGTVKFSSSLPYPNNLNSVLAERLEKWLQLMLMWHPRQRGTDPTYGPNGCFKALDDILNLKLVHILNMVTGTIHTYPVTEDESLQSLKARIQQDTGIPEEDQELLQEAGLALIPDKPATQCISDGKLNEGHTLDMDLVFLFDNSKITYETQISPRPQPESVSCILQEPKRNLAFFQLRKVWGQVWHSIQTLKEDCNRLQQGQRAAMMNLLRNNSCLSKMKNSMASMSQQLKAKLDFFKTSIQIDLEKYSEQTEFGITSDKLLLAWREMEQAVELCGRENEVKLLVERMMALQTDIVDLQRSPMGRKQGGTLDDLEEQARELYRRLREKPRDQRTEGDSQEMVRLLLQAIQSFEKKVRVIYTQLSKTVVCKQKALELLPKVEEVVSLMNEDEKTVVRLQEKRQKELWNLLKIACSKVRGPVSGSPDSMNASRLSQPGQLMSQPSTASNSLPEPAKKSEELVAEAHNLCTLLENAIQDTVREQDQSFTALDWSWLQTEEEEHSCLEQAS
Protocol: as §1, §2

MEK3 = target: T17, MEK3 (Homo sapiens, UniProt P46734)
T17 construct: purchased DiscoveRx Corporation (KinomeScan)
Protocol: as §1, §2

PAKC-beta = target: T18, PAKC-beta (Homo sapiens, UniProt P22694)
T18 construct: purchased DiscoveRx Corporation (KinomeScan)
Protocol: as §1, §2

PIK3CA(M1043I) = target: T19, PIK3CA(M1043I) (Homo sapiens, UniProt P42336, M1043I)
T19 construct: purchased DiscoveRx Corporation (KinomeScan)
Protocol: as §1, §2

TLK2 = target: T20, TLK2 (Homo sapiens, UniProt Q86UE8)
T20 construct: purchased DiscoveRx Corporation (KinomeScan)
Protocol: as §1, §2

PIP5K1A = target: T21, PIP5K1A (Homo sapiens, UniProt Q99755)
T21 construct: purchased DiscoveRx Corporation (KinomeScan)
Protocol: as §1, §2

AKT2 = target: T22, AKT2 (Homo sapiens, UniProt P31751)
T22 construct: purchased DiscoveRx Corporation (KinomeScan)
Protocol: as §1, §2

MST1R = target: T23, MST1R (Homo sapiens, UniProt Q04912)
T23 construct: purchased DiscoveRx Corporation (KinomeScan)
T23 sequence (Q04912 25-1400): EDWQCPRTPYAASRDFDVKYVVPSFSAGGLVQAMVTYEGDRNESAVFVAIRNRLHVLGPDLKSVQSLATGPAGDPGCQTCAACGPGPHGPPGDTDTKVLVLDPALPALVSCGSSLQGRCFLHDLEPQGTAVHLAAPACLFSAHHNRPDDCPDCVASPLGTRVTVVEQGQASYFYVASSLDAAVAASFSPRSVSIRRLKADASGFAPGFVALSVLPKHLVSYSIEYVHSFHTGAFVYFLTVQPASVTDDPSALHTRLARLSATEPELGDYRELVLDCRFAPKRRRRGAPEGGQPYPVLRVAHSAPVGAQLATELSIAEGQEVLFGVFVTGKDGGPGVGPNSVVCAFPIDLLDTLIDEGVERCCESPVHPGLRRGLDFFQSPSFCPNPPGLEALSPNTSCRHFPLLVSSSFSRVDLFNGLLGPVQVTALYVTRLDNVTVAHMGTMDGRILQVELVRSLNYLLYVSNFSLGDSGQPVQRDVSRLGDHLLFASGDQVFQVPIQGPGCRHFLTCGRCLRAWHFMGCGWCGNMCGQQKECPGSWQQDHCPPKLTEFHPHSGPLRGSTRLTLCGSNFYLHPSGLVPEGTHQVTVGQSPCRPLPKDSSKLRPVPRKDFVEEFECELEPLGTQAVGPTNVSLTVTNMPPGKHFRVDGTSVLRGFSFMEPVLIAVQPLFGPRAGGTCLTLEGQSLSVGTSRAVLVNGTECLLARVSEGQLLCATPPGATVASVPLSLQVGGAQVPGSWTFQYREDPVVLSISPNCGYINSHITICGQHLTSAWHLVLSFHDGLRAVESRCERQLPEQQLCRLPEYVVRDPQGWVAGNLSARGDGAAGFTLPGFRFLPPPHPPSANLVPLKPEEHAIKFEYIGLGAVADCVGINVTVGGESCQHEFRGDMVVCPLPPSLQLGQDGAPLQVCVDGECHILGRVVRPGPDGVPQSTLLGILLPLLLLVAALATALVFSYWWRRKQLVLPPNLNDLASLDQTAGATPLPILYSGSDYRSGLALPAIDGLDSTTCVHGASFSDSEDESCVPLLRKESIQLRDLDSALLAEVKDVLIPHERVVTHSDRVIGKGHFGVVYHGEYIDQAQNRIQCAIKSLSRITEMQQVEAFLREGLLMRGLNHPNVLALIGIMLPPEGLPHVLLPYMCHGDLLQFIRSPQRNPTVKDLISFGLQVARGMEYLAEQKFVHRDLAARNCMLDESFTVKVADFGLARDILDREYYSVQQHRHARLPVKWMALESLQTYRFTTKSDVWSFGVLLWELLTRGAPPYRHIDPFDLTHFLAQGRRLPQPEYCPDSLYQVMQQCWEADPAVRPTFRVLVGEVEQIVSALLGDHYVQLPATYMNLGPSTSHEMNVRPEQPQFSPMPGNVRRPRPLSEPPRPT
Protocol: as §1, §2

TIE2 = target: T24, TIE2 (Homo sapiens, UniProt Q02763)
T24 construct: purchased DiscoveRx Corporation (KinomeScan)
Protocol: as §1, §2

ABL1-phosphorylated = target: T25, ABL1-phosphorylated (Homo sapiens, UniProt P00519)
T25 construct: purchased DiscoveRx Corporation (KinomeScan)
Protocol: as §1, §2

EPHA8 = target: T26, EPHA8 (Homo sapiens, UniProt P29322)
T26 construct: purchased DiscoveRx Corporation (KinomeScan)
Protocol: as §1, §2

STK16 = target: T27, STK16 (Homo sapiens, UniProt O75716)
T27 construct: purchased DiscoveRx Corporation (KinomeScan)
T27 sequence (O75716 whole entry): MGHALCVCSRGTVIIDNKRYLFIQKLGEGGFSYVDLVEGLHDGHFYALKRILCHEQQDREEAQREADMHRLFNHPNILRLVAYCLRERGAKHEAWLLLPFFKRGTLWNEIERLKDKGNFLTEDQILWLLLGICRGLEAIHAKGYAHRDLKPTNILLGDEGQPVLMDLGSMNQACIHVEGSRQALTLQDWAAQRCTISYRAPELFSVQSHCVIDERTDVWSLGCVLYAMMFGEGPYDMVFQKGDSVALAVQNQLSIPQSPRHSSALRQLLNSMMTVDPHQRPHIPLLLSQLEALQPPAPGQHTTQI
Protocol: as §1, §2

FLT3(K663Q) = target: T28, FLT3(K663Q) (Homo sapiens, UniProt P36888, K663Q)
T28 construct: purchased DiscoveRx Corporation (KinomeScan)
Protocol: as §1, §2

PRP4 = target: T29, PRP4 (Homo sapiens, UniProt Q13523)
T29 construct: purchased DiscoveRx Corporation
Protocol: as §1, §2

CDK5 = target: T30, CDK5 (Homo sapiens, UniProt Q00535)
T30 construct: purchased DiscoveRx Corporation (KinomeScan)
Protocol: as §1, §2

ROS1 = target: T31, ROS1 (Homo sapiens, UniProt P08922)
T31 construct: purchased DiscoveRx Corporation
Protocol: as §1, §2

LCK = target: T32, LCK (Homo sapiens, UniProt P06239)
T32 construct: purchased DiscoveRx Corporation (KinomeScan)
Protocol: as §1, §2

MLK1 = target: T33, MLK1 (Homo sapiens, UniProt P80192)
T33 construct: purchased DiscoveRx Corporation (KinomeScan)
T33 sequence (P80192 whole entry): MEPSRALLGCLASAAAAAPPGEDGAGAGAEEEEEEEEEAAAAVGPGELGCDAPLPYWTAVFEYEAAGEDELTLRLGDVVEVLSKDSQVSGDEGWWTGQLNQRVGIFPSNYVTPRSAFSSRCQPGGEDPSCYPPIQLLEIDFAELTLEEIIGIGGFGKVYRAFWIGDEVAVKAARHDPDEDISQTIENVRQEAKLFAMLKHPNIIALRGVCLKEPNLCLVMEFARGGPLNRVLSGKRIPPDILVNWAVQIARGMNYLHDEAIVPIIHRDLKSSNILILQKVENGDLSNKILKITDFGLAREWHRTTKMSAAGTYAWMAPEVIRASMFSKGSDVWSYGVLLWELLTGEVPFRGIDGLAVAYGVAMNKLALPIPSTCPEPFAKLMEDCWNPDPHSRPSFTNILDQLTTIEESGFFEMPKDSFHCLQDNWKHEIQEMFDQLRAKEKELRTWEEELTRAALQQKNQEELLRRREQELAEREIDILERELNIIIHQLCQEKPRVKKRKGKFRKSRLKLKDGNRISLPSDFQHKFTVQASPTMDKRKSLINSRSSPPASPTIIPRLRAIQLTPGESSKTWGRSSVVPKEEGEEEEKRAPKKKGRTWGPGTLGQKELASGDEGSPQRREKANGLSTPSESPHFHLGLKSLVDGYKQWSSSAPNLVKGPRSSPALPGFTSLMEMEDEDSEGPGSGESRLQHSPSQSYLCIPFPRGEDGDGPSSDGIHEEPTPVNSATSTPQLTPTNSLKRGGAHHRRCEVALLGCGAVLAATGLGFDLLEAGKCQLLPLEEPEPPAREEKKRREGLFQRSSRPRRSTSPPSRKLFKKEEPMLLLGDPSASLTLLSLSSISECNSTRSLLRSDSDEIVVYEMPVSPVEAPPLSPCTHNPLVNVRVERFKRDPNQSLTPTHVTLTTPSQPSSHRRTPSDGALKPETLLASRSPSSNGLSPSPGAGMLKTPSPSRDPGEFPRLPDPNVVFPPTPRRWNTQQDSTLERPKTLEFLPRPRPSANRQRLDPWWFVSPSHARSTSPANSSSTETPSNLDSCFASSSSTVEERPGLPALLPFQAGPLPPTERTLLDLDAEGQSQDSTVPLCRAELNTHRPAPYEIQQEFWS
Protocol: as §1, §2

ACVR1B = target: T34, ACVR1B (Homo sapiens, UniProt P36896)
T34 construct: purchased DiscoveRx Corporation (KinomeScan)
Protocol: as §1, §2

PIK3CA (H1047L) = target: T35, PIK3CA (H1047L) (Homo sapiens, UniProt P42336, H1047L)
T35 construct: purchased DiscoveRx Corporation (KinomeScan)
Protocol: as §1, §2

CCOP(=O)(CN1CCC(COc2cc3nccc(Oc4ccc(NC(=O)C5(C(=O)Nc6ccc(F)cc6)CC5)cc4F)c3cc2OC)CC1)OCC [Example 10, N1-[4-[[7-[[1-(diethoxyphosphorylmethyl)-4-piperidinyl]methoxyl]-6-methoxyl-4-quinolyl]oxyl]-3-fluorophenyl]-N1′-(4-fluorophenyl)cyclopropane-1,1-dicarboxamide]
% Ctrl@1000 nM (EGFR(L858R)): 59 % Ctrl
% Ctrl@1000 nM (CAMK2B): 100 % Ctrl
% Ctrl@1000 nM (CSNK2A2): 100 % Ctrl
% Ctrl@1000 nM (PDPK1): 100 % Ctrl
% Ctrl@1000 nM [1]: 100 % Ctrl
% Ctrl@1000 nM (LIMK2): 100 % Ctrl
% Ctrl@1000 nM (ERK2): 100 % Ctrl
% Ctrl@1000 nM (CAMK2G): 100 % Ctrl
% Ctrl@1000 nM (LRRK2(G2019S)): 100 % Ctrl
% Ctrl@1000 nM (TGFBR1): 100 % Ctrl
% Ctrl@1000 nM (STK36): 100 % Ctrl
% Ctrl@1000 nM (AAK1): 91 % Ctrl
% Ctrl@1000 nM [2]: 32 % Ctrl
% Ctrl@1000 nM (SYK): 58 % Ctrl
% Ctrl@1000 nM (KIT(V559D)): 0.15 % Ctrl
% Ctrl@1000 nM (IKK-beta): 100 % Ctrl
% Ctrl@1000 nM (MEK3): 100 % Ctrl
% Ctrl@1000 nM (PAKC-beta): 100 % Ctrl
% Ctrl@1000 nM (PIK3CA(M1043I)): 100 % Ctrl
% Ctrl@1000 nM (TLK2): 100 % Ctrl
% Ctrl@1000 nM (PIP5K1A): 100 % Ctrl
% Ctrl@1000 nM (AKT2): 100 % Ctrl
% Ctrl@1000 nM (MST1R): 4 % Ctrl
% Ctrl@1000 nM (TIE2): 2.4 % Ctrl
% Ctrl@1000 nM (ABL1-phosphorylated): 33 % Ctrl
% Ctrl@1000 nM (EPHA8): 0.15 % Ctrl
% Ctrl@1000 nM (STK16): 77 % Ctrl
% Ctrl@1000 nM (FLT3(K663Q)): 0.55 % Ctrl
% Ctrl@1000 nM (PRP4): 76 % Ctrl
% Ctrl@1000 nM (CDK5): 100 % Ctrl
% Ctrl@1000 nM (ROS1): 29 % Ctrl
% Ctrl@1000 nM (LCK): 2.2 % Ctrl
% Ctrl@1000 nM (MLK1): 83 % Ctrl
% Ctrl@1000 nM (ACVR1B): 100 % Ctrl
% Ctrl@1000 nM (PIK3CA (H1047L)): 100 % Ctrl
